Patent US20120316157A1, “PLANT DISEASE CONTROLLING COMPOSITION AND METHOD FOR CONTROLLING PLANT DISEASE” (SUMITOMO CHEMICAL COMPANY, LIMITED, priority 2010, published 2012)
Where two headings read alike, the source gives them in different places.

Test system: gray mold fungus (Botrytis cinerea)
Assay: Cucumber leaf disk preventive test against gray mold fungus (Test Examples 1, 2 and Reference Example)
Assay type: in vivo
Procedure: True leaf of cucumber is punched out with cork borer to 13 mm in diameter to prepare a leaf disk. In 24 well microwell plate that is dispensed with 1 ml 0.8% water agar, the leaf disk is placed such that the upper side of the leaf is in an upward direction. Thereto is added 20 micro liter a testing solution prepared by mixing a dimethyl sulfoxide solution of the present compound (racemate) and a dimethyl sulfoxide solution of ferimzone or oxolinic acid to a predetermined concentration to treat the leaf disk.
After confirming that the testing medical solution is dried, conidium of gray mold fungus (Botrytis cinerea) is suspended into potato dextrose broth (DIFCO) in a density of about 10^5 conidium/mL and is then subjected to a spray inoculation. After leaving to stand the leaf disk in a growth chamber set up at 15° C. for four days, an onset area on the leaf is measured and then calculated an onset area rate (hereinafter, referred to as an onset area rate of treated group).
The same operation is carried out with 20 micro liter water instead of 20 micro liter a testing medicine solution to calculate an onset area rate (hereinafter, referred to an onset area rate of non-treated group).
A preventive value is calculated from the above onset area rate of treated group and the onset area rate of non-treated group by the following equation:
Preventive value(%)=100×(A−B)/A
A: an onset area rate of treated group
B: an onset area rate of non-treated group
The same operations as described in Test Example 1 are carried out with fenamidone, acibenzolar-5-methyl, amisulbrom, dazomet, diclomezine, famoxadone, fenoxanil, probenazole, proquinazid, pyroquilon, quinoxyfen, tricyclazole, isoprothiolane or tiadinil instead of ferimzone or oxolinic acid, so as to calculate respective preventive values.
Also for comparison, the same operations as described in Test Example 1 are carried out with the exception that the testing medicine solution is substituted with a predetermined concentration of each dimethyl sulfoxide solution of the present compound (racemate), fenamidone, acibenzolar-5-methyl, amisulbrom, dazomet, diclomezine, famoxadone, fenoxanil, probenazole, proquinazid, pyroquilon, quinoxyfen, tricyclazole, isoprothiolane, or tiadinil, so as to calculate respective preventive values.
For comparison, the same operations as described in Test Example 1 are carried out with the exception that the testing medicine solution is substituted with a predetermined concentration of each dimethyl sulfoxide solution of ferimzone or oxolinic acid, so as to calculate a preventive value.

[1] = Botrytis cinerea, foliar, 96 h, read-out: preventive value (%), heterocyclic compound alone, 0.5 ppm, 15° C., four days
[2] = Botrytis cinerea, foliar, 96 h, read-out: preventive value (%), heterocyclic compound alone, 5.0 ppm, 15° C., four days
[3] = Botrytis cinerea, foliar, 96 h, heterocyclic compound alone, 0.5 ppm, 15° C., four days, read-out: preventive value (%)
[4] = Botrytis cinerea, foliar, 96 h, heterocyclic compound alone, 5.0 ppm, 15° C., four days, read-out: preventive value (%)
[5] = heterocyclic compound alone, 0.5 ppm, 15° C., four days
[6] = heterocyclic compound alone, 5.0 ppm, 15° C., four days

CN1CSC(=S)N(C)C1 [dazomet]
pest or weed control at 0.5 ppm [1]: 10% | pest or weed control at 5 ppm [2]: 20%

CSC1=N[C@@](C)(c2ccccc2)C(=O)N1Nc1ccccc1 [fenamidone]
pest or weed control at 0.5 ppm [3]: 5% | pest or weed control at 5 ppm [4]: 10%

CCCOc1nc2ccc(I)cc2c(=O)n1CCC [proquinazid]
preventive value (%) [5]: 10% | preventive value (%) [6]: 15%

CNC(=O)C(OC)c1ccccc1COc1cc(C)ccc1C (racemic) [the present amide compound]
pest or weed control at 1 ppm (Botrytis cinerea, foliar, 96 h, the present amide compound alone, 1.0 ppm, 15° C., four days): 46% | pest or weed control at 2.5 ppm (Botrytis cinerea, foliar, 96 h, the present amide compound alone, 2.5 ppm, 15° C., four days): 56%

Cc1c(Br)c2ccc(F)cc2n1S(=O)(=O)c1ncn(S(=O)(=O)N(C)C)n1 [amisulbrom]
preventive value (%) [5]: 10% | preventive value (%) [6]: 15%

Cc1ccc(NC(=O)c2snnc2C)cc1Cl [tiadinil]
pest or weed control at 0.5 ppm [3]: 10% | pest or weed control at 5 ppm [4]: 25%

C/C(=N/Nc1nc(C)cc(C)n1)c1ccccc1C [ferimzone]
pest or weed control at 0.5 ppm [1]: 10% | pest or weed control at 5 ppm [2]: 15%

C[C@@]1(c2ccc(Oc3ccccc3)cc2)OC(=O)N(Nc2ccccc2)C1=O (racemic) [famoxadone]
pest or weed control at 0.5 ppm [3]: 10% | pest or weed control at 5 ppm [4]: 15%

Cc1c(Cl)cc(-c2ccc(=O)[nH]n2)cc1Cl [diclomezine]
pest or weed control at 0.5 ppm [3]: 10% | pest or weed control at 5 ppm [4]: 15%

CC(Oc1ccc(Cl)cc1Cl)C(=O)NC(C)(C#N)C(C)C (centres unmarked) [fenoxanil]
preventive value (%) [5]: 10% | preventive value (%) [6]: 15%

Fc1ccc(Oc2ccnc3cc(Cl)cc(Cl)c23)cc1 [quinoxyfen]
pest or weed control at 0.5 ppm [3]: 10% | pest or weed control at 5 ppm [4]: 15%

O=C1CCc2cccc3c2N1CC3 [pyroquilon]
pest or weed control at 0.5 ppm [1]: 10% | pest or weed control at 5 ppm [2]: 15%

C=CCOC1=NS(=O)(=O)c2ccccc21 [probenazole]
pest or weed control at 0.5 ppm [3]: 10% | pest or weed control at 5 ppm [4]: 25%

Cc1cccc2sc3nncn3c12 [tricyclazole]
pest or weed control at 0.5 ppm [3]: 10% | pest or weed control at 5 ppm [4]: 15%

CC(C)OC(=O)C(C(=O)OC(C)C)=C1SCCS1 [isoprothiolane]
pest or weed control at 0.5 ppm [1]: 10% | pest or weed control at 5 ppm [2]: 15%

CSC(=O)c1cccc2nnsc12 [acibenzolar-S-methyl]
preventive value (%) [5]: 15% | preventive value (%) [6]: 25%
